How the values were obtained:
Abl (T315I) = Abl (T315I) (Homo sapiens, UniProt P00519, T315I); experiment: Abl kinase activity assay (fluorescent ELISA, AblTide substrate); assay type: biochemical
Experimental: The disclosed compounds were assayed for their ability to inhibit the activity of ABL kinase. Nunc Maxisorb plates are coated with streptavidin by overnight incubation with 100 μL per well of 1 μg/mL streptavidin in DPBS. Prior to the start of the experiment, the plates are washed with TBST (3×200 μL) and blocked for at least 3 hours by adding 150 μL of 5% BSA/TBST. The plates are washed with TBST (3×200 μL/well) and left dry immediately before the capture step.
The test articles and controls (Gleevec) are prepared using the following assay buffer @ 10× desired final concentration (50 mM Tris pH 7.0, 0.02 mg/ml BSA, 10 mM MgCl2, 0.1 mM Na3VO4, 1 mM EGTA, 0.01% NP-40, 1 mM DTT in 10% glycerol/water). In a reaction plate are added rapidly 5 μL test article (or control) and 30 μL ABL or ABL T315I (0.089 nM final concentration, in the above buffer). The plate is incubated for 20 minutes. To the reaction plate is added ATP (100 μM final concentration) and AblTide (128 nM final concentration) in a volume of 15 μL. The plate is incubated at room temperature for one hour.
From the reaction plate, 40 μL is transferred to the streptavidin coated plate. The capture plate is incubated at room temperature for 30 minutes then washed 3× with TBST. To the capture plate is added 100 μL/well of Cell Signaling anti-phospho tyrosine at a dilution of 1:3000 in 2% BSA/TBST. The plate is incubated for two hours at room temperature then washed 3× with TBST. To the capture plate is added 100 μL/well of Alkaline Phosphatase Tagged Goat anti Mouse Antibody at a dilution of 1:4000 in 2% BSA/TBST. The plate is incubated for one hour at room temperature then washed 3× with TBST.
The fluorescent readout was initiated by the addition of 100 μL/well of Attophos reagent (6 mg/10 mL). The reading was done on the Perkin Elmer Envision system.

FGFR2 (N549H) = biological target: T1, FGFR2 (N549H) (Homo sapiens, UniProt P21802, N549H); experiment: FGFR2 kinase activity assay (fluorescent ELISA); assay type: biochemical
T1 construct: purchased Millipore 14-742
Experimental: The enzymatic assays described herein are conducted according to the following procedures from commercially available reagents. In one, non limiting, example, a fluorescent ELISA assay is used to identify and characterize inhibitors of FGFR2 kinase as described herein. This heterogeneous assay utilizes a biotinylated peptide with a tyrosine motif as a substrate and an anti-phospho-tyrosine antibody to measure phosphorylation of the substrate. The reaction is initiated by adding the test compound, 37 μM Pyk2 substrate (Midwest Biotech, Cat. # MBT2383), 12.5 μM ATP (Roche, Cat. #11 140 965 001) and 0.5 μM FGFR2 enzyme (Millipore, Cat. #14-742) sequentially to a non-binding polypropylene V-well plate. All reagents are in an assay buffer consisting of: 50 mM Tris-HCL, 0.02 mg/ml BSA, 10 mM MgCl2, 0.1 mM Na3VO4, 1 mM EGTA, 75 μM ATP, 0.01% NP-40, 2 mM DTT and 10% glycerol. The reaction is incubated for 60 minutes. As the reaction proceeds, FGFR2 phosphorylates tyrosines in the peptide. The reaction mixture is then moved to a blocked streptavidin-coated Nunc Maxisorb plate (coated with 100 ng streptavidin from Pierce (Cat. #15-124) per well), allowing for the capture of the biotinylated peptide. Peptides are captured for 30 minutes at room temperature, the phosphorylation of peptides continues during this phase. The reaction is stopped by washing the streptavidin-coated plate 6 times with TBST. Phosphorylated peptide is detected by adding anti-phospho-tyrosine antibody (Cell Signaling, Cat. #9411, diluted 1:3000) to the streptavidin-coated plate. Unbound anti-phospho-tyrosine antibody is removed by washing the streptavidin-coated plate 6 times with TBST. Secondary detection is performed using alkaline phosphatase tagged goat anti-mouse antibody (Pierce, Cat. #31320, diluted 1:4000) for one hour. Unbound secondary antibody is removed by washing the streptavidin-coated plate 6 times with TBST. The fluorescent readout is initiated by adding to the streptavidin-coated plate Promega Attophos substrate (Promega, Cat. # S1000, dilution=6 mg/10 ml), which, when dephosphorylated by alkaline phosphatase, emits a fluorescent signal of 595 nm in wavelength when excited by a signal of 400 nm in wavelength. The reading of the 595 nm signal is done on the Perkin Elmer Envision system. Compounds which prevent FGFR2 from phosphorylating the peptide result in a lower fluorescent signal. The 595 nm fluorescent signal is directly proportional to the activity of FGFR2. Thus, the inhibition of FGFR2 by compounds is monitored by the decrease in the 595 nm fluorescent signal.

MDA-MB-231 = experiment: MTS assay, MDA-MB-231; assay type: cell-based; conditions: Homo sapiens, MDA-MB-231, 72 h
Experimental: (§1) Cells were maintained at 37° C., 5% CO2 in RPMI media supplemented with 1% fetal bovine serum, penicillin/streptomycin and fungizone (Invitrogen). Cells were seeded into 96-well tissue culture plates at 3000 per well and cultured at 37° C. for 18 h. Test compounds were dissolved and diluted to 300× in DMSO then diluted 1:40 in DMEM. Cells were incubated with test compounds for 72 hours followed by incubation with tetrazolium compound (3-(4,5-dimethylthiazol-2-yl)-5-(3-carboxymethoxyphenyl)-2-(4-sulfophenyl)-2H-tetrazolium, inner salt; MTS) and the electron coupling reagent, phenazine methosulfate (PMS) for 4 hours. […] The ability of compounds to inhibit cell growth in this assay is correlated with the reduction of dehydrogenase enzyme activity found in metabolically active cells. The measurement of the absorbance of the formazan was assessed using an ENVISION™ (Perkin Elmer) microplate reader at 492 nm. The calculated IC50 value is the concentration of the test compound that causes a 50% decrease in the absorbance.

DLD-1 = experiment: MTS assay, DLD-1; assay type: cell-based; conditions: Homo sapiens, DLD-1, 72 h
Experimental: as §1

T1 sequence (P21802 22-821 N549H): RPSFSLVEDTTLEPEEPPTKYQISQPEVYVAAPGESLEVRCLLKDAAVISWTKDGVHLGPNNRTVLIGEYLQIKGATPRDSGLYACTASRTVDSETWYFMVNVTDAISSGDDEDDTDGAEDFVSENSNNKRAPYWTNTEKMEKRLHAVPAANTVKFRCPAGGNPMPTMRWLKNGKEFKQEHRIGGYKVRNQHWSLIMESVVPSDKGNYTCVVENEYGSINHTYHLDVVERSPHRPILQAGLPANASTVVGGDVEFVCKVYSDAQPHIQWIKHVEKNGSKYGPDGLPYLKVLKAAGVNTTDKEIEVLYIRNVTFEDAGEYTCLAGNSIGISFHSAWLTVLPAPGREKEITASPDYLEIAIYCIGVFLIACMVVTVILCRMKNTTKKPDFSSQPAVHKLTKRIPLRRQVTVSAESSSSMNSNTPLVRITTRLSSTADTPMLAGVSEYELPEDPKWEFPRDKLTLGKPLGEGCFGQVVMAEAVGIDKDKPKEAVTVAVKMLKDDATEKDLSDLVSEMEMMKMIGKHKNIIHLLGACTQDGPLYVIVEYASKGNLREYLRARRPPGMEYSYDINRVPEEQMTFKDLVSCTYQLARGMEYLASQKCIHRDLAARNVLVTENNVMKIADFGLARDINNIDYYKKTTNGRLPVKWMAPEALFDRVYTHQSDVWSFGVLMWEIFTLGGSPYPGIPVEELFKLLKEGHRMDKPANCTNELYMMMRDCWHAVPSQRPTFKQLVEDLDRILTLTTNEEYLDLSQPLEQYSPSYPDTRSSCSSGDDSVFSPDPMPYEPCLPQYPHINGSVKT

Row | inhibition at 10 µM (Abl (T315I)) [%] | inhibition at 30 µM (FGFR2 (N549H)) [%] | Compound | inhibition at 10 µM (MDA-MB-231) [%] | inhibition at 10 µM (DLD-1) [%]
1 | 25 |  | O=c1[nH][nH]c(-c2ccccc2)c1-c1cn2c3c(cccc13)CCC2 [Compound 10, 4-(5,6-dihydro-4H-pyrrolo[3,2,1-ij]quinolin-1-yl)-5-phenyl-1,2-dihydro-3H-pyrazol-3-one] | 37 | 46
2 | 13 |  | O=c1[nH][nH]c(-c2ccc(Cl)cc2)c1-c1cn2c3c(cccc13)CCC2 [Compound 11, 5-(4-chlorophenyl)-4-(5,6-dihydro-4H-pyrrolo[3,2,1-ij]quinolin-1-yl)-1,2-dihydro-3H-pyrazol-3-one] | 97 | 97
3 | 20 | 33 | O=c1[nH][nH]c(-c2ccccc2Cl)c1-c1cn2c3c(cccc13)CCC2 [Compound 15, 5-(2-chlorophenyl)-4-(5,6-dihydro-4H-pyrrolo[3,2,1-ij]quinolin-1-yl)-1,2-dihydro-3H-pyrazol-3-one] |  | 
4 | 83 |  | Cc1ccc(-c2[nH][nH]c(=O)c2-c2cn3c4c(cccc24)CCC3)cc1 [Compound 16, 4-(5,6-dihydro-4H-pyrrolo[3,2,1-ij]quinolin-1-yl)-5-(4-methylphenyl)-1,2-dihydro-3H-pyrazol-3-one] | 63 | 78
5 | 9 |  | COc1ccc(-c2[nH][nH]c(=O)c2-c2cn3c4c(cccc24)CCC3)cc1 [Compound 18, 4-(5,6-dihydro-4H-pyrrolo[3,2,1-ij]quinolin-1-yl)-5-(4-methoxyphenyl)-1,2-dihydro-3H-pyrazol-3-one] | 59 | 72
6 | 87 | 45 | O=c1[nH][nH]c(-c2ccccc2Br)c1-c1cn2c3c(cccc13)CCC2 [Compound 20, 5-(2-bromophenyl)-4-(5,6-dihydro-4H-pyrrolo[3,2,1-ij]quinolin-1-yl)-1,2-dihydro-3H-pyrazol-3-one] |  | 
7 | 79 | 75 | O=c1[nH][nH]c(-c2cccc(F)c2)c1-c1cn2c3c(cccc13)CCC2 [Compound 21, 4-(5,6-dihydro-4H-pyrrolo[3,2,1-ij]quinolin-1-yl)-5-(3-fluorophenyl)-1,2-dihydro-3H-pyrazol-3-one] |  | 

Second part, the molecule before the results:

Row | Compound | inhibition at 10 µM (Abl (T315I)) [%] | inhibition at 30 µM (FGFR2 (N549H)) [%] | inhibition at 10 µM (MDA-MB-231) [%] | inhibition at 10 µM (DLD-1) [%]
8 | O=c1[nH][nH]c(-c2cn3c4c(cccc24)CCC3)c1-c1c[nH]c2ccccc12 [Compound 4, 5-(5,6-dihydro-4H-pyrrolo[3,2,1-ij]quinolin-1-yl)-4-(1H-indol-3-yl)-1,2-dihydro-3H-pyrazol-3-one] | 63 | 96 |  | 
9 | O=c1[nH][nH]c(-c2cc3ccccc3s2)c1-c1cn2c3c(cccc13)CCC2 [Compound 12, 5-(1-benzothien-2-yl)-4-(5,6-dihydro-4H-pyrrolo[3,2,1-ij]quinolin-1-yl)-1,2-dihydro-3H-pyrazol-3-one] | 53 |  | 90 | 87
10 | CC(C)(C)Cc1[nH][nH]c(=O)c1-c1cn2c3c(cccc13)CCC2 [Compound 14, 4-(5,6-dihydro-4H-pyrrolo[3,2,1-ij]quinolin-1-yl)-5-(2,2-dimethylpropyl)-1,2-dihydro-3H-pyrazol-3-one] | 8 |  | 72 | 57
11 | O=c1[nH][nH]c(-c2ccc(Cl)cc2Cl)c1-c1cn2c3c(cccc13)CCC2 [Compound 17, 5-(2,4-dichlorophenyl)-4-(5,6-dihydro-4H-pyrrolo[3,2,1-ij]quinolin-1-yl)-1,2-dihydro-3H-pyrazol-3-one] | 81 | 48 |  | 40
12 | O=c1[nH][nH]c(C2CCCC2)c1-c1cn2c3c(cccc13)CCC2 [Compound 19, 5-cyclopentyl-4-(5,6-dihydro-4H-pyrrolo[3,2,1-ij]quinolin-1-yl)-1,2-dihydro-3H-pyrazol-3-one] | 77 |  |  | 
13 | CCOc1ccc2ccccc2c1-c1[nH][nH]c(=O)c1-c1cn2c3c(cccc13)CCC2 [Compound 22, 4-(5,6-dihydro-4H-pyrrolo[3,2,1-ij]quinolin-1-yl)-5-(2-ethoxy-1-naphthyl)-1,2-dihydro-3H-pyrazol-3-one] | 11 | 41 |  | 
14 | CC(C)c1[nH][nH]c(=O)c1-c1cn2c3c(cccc13)CCC2 [Compound 23, 4-(5,6-dihydro-4H-pyrrolo[3,2,1-ij]quinolin-1-yl)-5-isopropyl-1,2-dihydro-3H-pyrazol-3-one] | 8 |  |  | 
15 | O=C(Nc1ccccc1OC(F)F)N1CCC(CNc2nccc(-c3cn4c5c(cccc35)CCC4)n2)CC1 [Compound 50, N-(2-(difluoromethoxy)phenyl)-4-((4-(5,6-dihydro-4H-pyrrolo[3,2,1-ij]quinolin-1-yl)pyrimidin-2-ylamino)methyl)piperidine-1-carboxamide] |  | 55 | 53 | 55
16 | CC(=O)c1ccccc1NC(=O)N1CCC(CNc2nccc(-c3cn4c5c(cccc35)CCC4)n2)CC1 [Compound 51, N-(2-acetylphenyl)-4-((4-(5,6-dihydro-4H-pyrrolo[3,2,1-ij]quinolin-1-yl)pyrimidin-2-ylamino)methyl)piperidine-1-carboxamide] |  | 52 | 72 | 97
17 | COc1ccc(NC(=O)N2CCC(CNc3nccc(-c4cn5c6c(cccc46)CCC5)n3)CC2)c(OC)c1 [Compound 53, 4-((4-(5,6-dihydro-4H-pyrrolo[3,2,1-ij]quinolin-1-yl)pyrimidin-2-ylamino)methyl)-N-(2,4-dimethoxyphenyl)piperidine-1-carboxamide] |  | 48 | 95 | 98
18 | COc1ccccc1C(=O)N1CCC(CNc2nccc(-c3cn4c5c(cccc35)CCC4)n2)CC1 [Compound 54, (4-((4-(5,6-dihydro-4H-pyrrolo[3,2,1-ij]quinolin-1-yl)pyrimidin-2-ylamino)methyl)piperidin-1-yl)(2-methoxyphenyl)methanone] |  | 46 | 37 | 95
